From patent US4111955A, “N-Trihalomethanesulfenyl carbamoyloximino di-sulfur heterocyclic compounds” (priority 1976, dated 1978)
Values after ≈ are worked out from the molar mass of the structure shown.

Columns and labels:
[1] = system: bean aphid (Aphis fabae Scop.); test: Bean Aphid Foliage Spray Test; format: in vivo; design: key to pesticidal activity rating, Aphid: A: excellent control; B: partial control; C: no control
Method: Adults and nymphal stages of the bean aphid (Aphis fabae Scop.) reared on potted dwarf nasturtium plants at 65°-70° F. and 50-70 percent relative humidity, constituted the test insects. For testing purposes, the number of aphids per pot was standardized to 100-150 by trimming plants containing excess aphids.
The test compounds were formulated by diluting the stock suspension with water to give a suspension containing 500 parts of test compound per million parts of final formulation.
The potted plants (one pot per compound tested) infested with 100-150 aphids, were placed on a revolving turntable and sprayed with 100-110 milliliters of test compound formulation by use of a DeVilbiss spray gun set at 40 psig. air pressure. This application, which lasted 25 seconds, was sufficient to wet the plants to run-off. As a control, 100-110 milliliters of a water-acetone-emulsifier solution containing no test compound were also sprayed on infested plants. After spraying, the pots were placed on their sides on a sheet of white standard mimeograph paper which had been previously ruled to facilitate counting. Temperature and humidity in the test room during the 24 hour holding period were 65°-70° F. and 50-70 percent, respectively. Aphids which fell onto the paper and were unable to remain standing after being uprighted were considered dead. Aphids remaining on the plants were observed closely for movement and those which were unable to move the length of the body upon stimulation by prodding were considered dead. Percent mortality was recorded for various concentration levels.
(§1) In these tests the pesticidal activity of the compounds against aphid, mite, Southern Armyworm, Bean Beetle and House fly was rated as follows:
(§2) The LD50 values shown in the above Table II were determined by testing the compositions over an appropriate concentration range obtained by serial dilution of the stock suspension with water. The percent kill was plotted on log-probit graph paper versus parts per million concentration, and the LD50 read from an eye-fitted line drawn through the resultant points.

[2] = system: house flies (Musca domestica, L.); test: Fly Bait Test; format: in vivo; design: key to pesticidal activity rating, Housefly: A: excellent control; B: partial control; C: no control
Method: Four to 6 day old adult house flies (Musca domestica, L.), reared according to the specifications of the Chemical Specialities Manufacturing Association (Blue Book, McNair-Dorland Co., N.Y. 1954; pages 243-244, 261) under controlled conditions of 80°±5° F. and 50±5 percent relative humidity, were the test insects. The flies were immobilized by anesthetizing with carbon dioxide and twenty five immobilized individuals, males and females, were transferred to a cage consisting of a standard food strainer about 5 inches in diameter which was inverted over a wrapping-paper-covered surface. The test compounds were formulated by diluting the stock suspension with a 10 percent (by weight) sugar solution to give a suspension containing 500 parts of test compound per million parts of final formulation, by weight. Ten milliliters of the test formulation were added to a souffle cup containing a 1-inch square of an absorbent cotton pad. This bait cup was introduced and centered on the blotting paper under the food strainer prior to admitting the anesthetized flies. The caged flies were allowed to feed on the bait for 24 hours, at a temperature of 80°±5° F. and the relative humidity of 50±5 percent.
as §1, §2

mites = test: Systemic miticidal activity (soil drench of infested bean plants); format: in vivo, Tetranychus urticae Koch; conditions: Tetranychus urticae; systemic, soil drench, value in parentheses, Table II; read-out: Insect Toxicity, LD50, Mite, systemic activity
Method: (§3) Adults and nymphal stages of the two-spotted mite (Tetranychus urticae Koch), reared on Tendergreen bean plants at 80±5 percent relative humidity, were the test organisms. Infested leaves from a stock culture were placed on the primary leaves of two bean plants 6 to 8 inches in height, growing in a 21/2 inch clay pot. 150-200 Mites, a sufficient number for testing, transferred from the excised leaves to the fresh plants in a period of 24 hours. Following the 24 hour transfer period, the excised leaves were removed from the infested plants. The test compounds were formulated by diluting the stock suspension with water to give a suspension containing 500 parts of test compound per million parts of final formulation. The potted plants (one pot per compound) were placed on a revolving turntable and sprayed with 100-110 milliliters of test compound formulation by use of a DeVilbiss spray gun set at 40 psig. air pressure. This application, which lasted 25 seconds, was sufficient to wet the plants to run-off. As a control, 100-110 milliliters of a water solution containing acetone and emulsifier in the same concentrations as the test compound formulation, but containing no test compound, were also sprayed on infested plants. The sprayed plants were held at 80±5 percent relative humidity for 6 days, after which a mortality count of motile forms was made. Microscopic examination for motile forms was made on the leaves of the test plants. Any individual which was capable of locomotion upon prodding was considered living.
as §2
Systemic treatments were made by drenching 20 milliliters of the test compound formulation into the soil around the roots of bean plants growing in 21/2 inch clay pots. […]

[3] = Peroral toxicity to mammals (rat); format: in vivo; conditions: in vivo, po; rat, peroral, Table II; read-out: Rat P.O. LD50
Method: Certain of these compositions were also evaluated to determine their peroral toxicity to mammals. The animal selected for this experiment was the rat. The test results obtained are expressed in terms of the number of milligrams of composition per kilogram of weight of the animal required to achieve a mortality rate of 50 percent (LD50).

[4] = system: southern armyworm (Prodenia eridania, (Cram.)); test: Southern Armyworm Leaf Spray Test; format: in vivo; design: key to pesticidal activity rating, Armyworm: A: excellent control; B: partial control; C: no control
Method: Larvae of the southern armyworm (Prodenia eridania, (Cram.)), reared on Tendergreen bean plants at a temperature of 80°±5° F. and a relative humidity of 50±5 percent, constituted the test insects.
The test compounds were formulated by diluting the stock suspension with water to give a suspension containing 500 parts of test compound per million parts of final formulation. Potted Tendergreen bean plants of standard height and age were placed on a revolving turntable and sprayed with 100-110 milliliters of test compound formulation by use of a DeVilbiss spray gun set at 10 psig air pressure. This application, which lasted 25 seconds, was sufficient to wet plants to run-off. As a control, 100-110 milliliters of a water-acetone-emulsifier solution containing no test compound were also sprayed on infested plants. When dry, the paired leaves were separated and each one was placed in a 9 centimeter Petri dish lined with moistened filter paper. Five randomly selected larvae were introduced into each dish and the dishes were closed. The closed dishes were labeled and held at 80°-85° F. for 3 days. Although the larvae could easily consume the whole leaf within 24 hours, no more food was added. Larvae which were unable to move the length of the body, even upon stimulation by prodding, were considered dead. Percent mortality was recorded for various concentration levels.
as §1, §2

[5] = system: Mexican bean beetle (Epilachna varivestis, Muls.); test: Mexican Bean Beetle Leaf Spray Test; format: in vivo; design: key to pesticidal activity rating, Bean beetle: A: excellent control; B: partial control; C: no control; conditions: leaf spray
Method: Fourth instar larvae of the Mexican bean beetle (Epilachna varivestis, Muls.), reared on Tendergreen bean plants at a temperature of 80°±5° F. and 50±5 percent relative humidity, were the test insects.
The test compounds were formulated by diluting the stock suspension with water to give a suspension containing 500 parts of test compound per million parts of final formulation. Potted Tendergreen bean plants of standard height and age were placed on a revolving turntable and sprayed with 100-110 milliliters of test compound formulation by use of a DeVilbiss spray gun set at 10 psig air pressure. This application, which lasted 25 seconds, was sufficient to wet plants to run-off. As a control, 100-110 milliliters of a water-acetone-emulsifier solution containing no test compound were also sprayed on infested plants. When dry, the paired leaves were separated and each was placed in a 9 centimeter Petri dish lined with moistened filter paper. Five randomly selected larvae were introduced into each dish, and the dishes were closed. The closed dishes were labeled and held at a temperature of 80°±5° F. for 3 days. Although the larvae could easily consume the leaf within 24 to 48 hours, no more food was added. Larvae which were unable to move the length of the body, even upon stimulation, were considered dead.
as §1, §2

[6] = system: two-spotted mite (Tetranychus urticae Koch); test: Mite Foliage Spray Test; format: in vivo; design: key to pesticidal activity rating, Mite: A: excellent control; B: partial control; C: no control
Method: as §3, §1, §2

With `CNC(=O)ON=C1CSCCS1` [drawing 3 --NHCH3, reference compound] the “pesticidal activity rating, Aphid” value ([1]; 500 parts per million, 24 hour) was “A”, the LC50 ([1]; Aphis fabae, foliar, 24 h, Table II, read-out: Insect Toxicity, LD50, Aphid) was 5 µg/mL (≈ 24.2 µM) and the “pesticidal activity rating, Housefly” value ([2]; 500 parts per million, 24 hours) was “A”. It also gave an LC50 ([2]; Musca domestica, 24 h, Table II, read-out: Insect Toxicity, LD50, House fly) of 1 µg/mL (≈ 4.85 µM), an LC50 (mites) of 12 µg/mL (≈ 58.2 µM) and an LD50 [3] of 15 mg/kg. The “pesticidal activity rating, Armyworm” value ([4]; 500 parts per million, 3 days) was “A”, the LC50 ([4]; Spodoptera eridania, 72 h, Table II, read-out: Insect Toxicity, LD50, Armyworm) was 53 µg/mL (≈ 257 µM) and the LC50 ([5]; Epilachna varivestis, 72 h, Table II, read-out: Insect Toxicity, LD50, Mexican Bean beetle) was 52 µg/mL (≈ 252 µM). For the same compound, the “pesticidal activity rating, Bean beetle” value ([5]; 500 parts per million, 3 days) was “A”, the “pesticidal activity rating, Mite” value ([6]; 500 parts per million, 6 days) was “A” and the LC50 ([6]; Tetranychus urticae, foliar, Table II, read-out: Insect Toxicity, LD50, Mite) was 6 µg/mL (≈ 29.1 µM).
